Measurements as given in ChEMBL document CHEMBL5154694, “Fascaplysin derivatives binding to DNA via unique cationic five-ring coplanar backbone showed potent antimicrobial/antibiofilm activity against MRSA in vitro and in vivo” (Eur J Med Chem, 2022).
Activity calls are given as the source filed them. No cut-off for these calls is given here.

How the values were obtained:
[1] = test system: Staphylococcus aureus; test: Bactericidal activity against methicillin-resistant Staphylococcus aureus ATCC 4330 assessed as reduction in bacterial counts at 2X MIC within 0.5 hrs by time-kill kinetic assay; format: functional
[2] = test system: Staphylococcus aureus; test: Bactericidal activity against methicillin-resistant Staphylococcus aureus ATCC 4330 assessed as reduction in bacterial counts at 4X MIC by time-kill kinetic assay; format: functional, organism-based
[3] = test system: Staphylococcus aureus; test: Bactericidal activity against methicillin-resistant Staphylococcus aureus ATCC 4330 assessed as reduction in bacterial counts at 1 to 4X MIC within 24 hrs by time-kill kinetic assay; format: functional
[4] = test system: Staphylococcus aureus; test: Antibacterial activity against methicillin-resistant Staphylococcus aureus ATCC 4330 after 16 to 18 hrs by microbroth dilution method; format: functional; conditions: time 16-18 hrs
[5] = Cytotoxicity against mouse RAW264.7 cells assessed as cell survival at 50 ug/ml incubated for 24 hrs by CCK-8 assay; format: toxicity, cell-based; conditions: at 50 µg/mL, read-out: Activity
[6] = Cytotoxicity against mouse RAW264.7 cells assessed as cell survival at 25 ug/ml incubated for 24 hrs by CCK-8 assay; format: toxicity, cell-based; conditions: at 25 µg/mL, read-out: Activity
[7] = Toxicity in female ICR peritonitis mouse model infected with methicillin-resistant Staphylococcus aureus ATCC 4330 assessed as kidney damage at 10 mg/kg, ip; format: organism-based; conditions: in vivo
[8] = Toxicity in female ICR peritonitis mouse model infected with methicillin-resistant Staphylococcus aureus ATCC 4330 assessed as liver damage at 10 mg/kg, ip; format: organism-based; conditions: in vivo
[9] = test system: Staphylococcus aureus; test: Antibiofilm activity against methicillin-resistant Staphylococcus aureus ATCC 4330 assessed as inhibition of biofilm formation at 6.25 ug/ml after 24 hrs by crystal violet staining based assay relative to control; format: functional
[10] = Toxicity in female ICR peritonitis mouse model infected with methicillin-resistant Staphylococcus aureus ATCC 4330 assessed as lung damage at 10 mg/kg, ip; format: organism-based; conditions: in vivo
[11] = test system: Staphylococcus aureus; test: Antimicrobial activity against methicillin-resistant Staphylococcus aureus ATCC 4330 infected in female ICR peritonitis mouse model assessed as increase in survival rate of mouse at 10 mg/kg, ip; format: functional
[12] = test system: Staphylococcus aureus; test: Antimicrobial activity against methicillin-resistant Staphylococcus aureus ATCC 4330 infected in female ICR peritonitis mouse model assessed as survival time of mouse at 10 mg/kg, ip; format: functional
[13] = Hemolytic activity in mouse erythrocytes assessed as hemolysis at 12.5 ug/ml relative to control; format: toxicity, cell-based, Erythrocyte; conditions: at 12.5 µg/mL, read-out: Activity
[14] = Cytotoxicity against mouse RAW264.7 cells assessed as cell survival at 12.5 ug/ml incubated for 24 hrs by CCK-8 assay; format: toxicity, cell-based; conditions: at 12.5 µg/mL, read-out: Activity
[15] = test system: Staphylococcus aureus; test: Antimicrobial activity against methicillin-resistant Staphylococcus aureus ATCC 4330 infected in female ICR peritonitis mouse model assessed as reduction in bacteria in blood at 10 mg/kg, ip; format: functional; set-up: scale not given: the % may be the effect or the level left
[16] = test system: Staphylococcus aureus; test: Antibiofilm activity against methicillin-resistant Staphylococcus aureus ATCC 4330 assessed as fold change in downregulation of AgrA mRNA expression at 4X MIC after 2 hrs by qRT-PCR assay; format: functional
[17] = test system: Staphylococcus aureus; test: Antibiofilm activity against methicillin-resistant Staphylococcus aureus ATCC 4330 assessed as inhibition of biofilm formation at 50 ug/ml after 24 hrs by crystal violet staining based assay relative to control; format: functional
[18] = test system: Staphylococcus aureus; test: Antibiofilm activity against methicillin-resistant Staphylococcus aureus ATCC 4330 assessed as fold change in upregulation of AgrA mRNA expression at 4X MIC after 2 hrs by qRT-PCR assay; format: functional
[19] = test system: Staphylococcus aureus; test: Antibiofilm activity against methicillin-resistant Staphylococcus aureus ATCC 4330 assessed as inhibition of biofilm formation at 1.56 ug/ml after 24 hrs by crystal violet staining based assay relative to control; format: functional
[20] = test system: DNA; test: Inhibition of methicillin-resistant Staphylococcus aureus ATCC 4330 genomic DNA migration at 3.125 to 6.25 ug/ml measured by electrophoretic mobility assay; format: nucleic-acid assay; conditions: dose 3.125-6.25 µg/ml
[21] = test system: Staphylococcus aureus; test: Induction of membrane morphological changes in methicillin-resistant Staphylococcus aureus ATCC 4330 assessed as visible cell membrane disruption at 4X MIC after 2 hrs by transmission electron microscopy; format: functional
[22] = test system: Staphylococcus aureus; test: Induction of membrane morphological changes in methicillin-resistant Staphylococcus aureus ATCC 4330 assessed as fluorescent intensity at 1 to 4X MIC measured after 30 to 120 mins by propidium iodide staining based flow cytometry assay; format: functional; conditions: time 30-120 min
[23] = test system: Staphylococcus aureus; test: Bactericidal activity against methicillin-resistant Staphylococcus aureus ATCC 4330 assessed as inhibition of bacterial regrowth at 2X MIC after 24 hrs by time-kill kinetic assay; format: functional, organism-based
[24] = test system: Staphylococcus aureus; test: Induction of membrane morphological changes in methicillin-resistant Staphylococcus aureus ATCC 4330 assessed as visible cell surface wrinkles at 4X MIC after 2 hrs by scanning electron microscopy; format: functional
[25] = test system: DNA; test: Binding affinity to methicillin-resistant Staphylococcus aureus ATCC 4330 DNA assessed as induction of confirmational changes at 50 ug/ml measured by Circular dichroism assay; format: nucleic-acid assay; conditions: dose 50.0 µg/ml
[26] = test system: Staphylococcus aureus; test: Induction of membrane morphological changes in methicillin-resistant Staphylococcus aureus ATCC 4330 assessed as ghost cells at 4X MIC after 2 hrs by transmission electron microscopy; format: functional
[27] = test system: Staphylococcus aureus; test: Induction of membrane morphological changes in methicillin-resistant Staphylococcus aureus ATCC 4330 assessed as visible cell wall fragments at 4X MIC after 2 hrs by transmission electron microscopy; format: functional
[28] = test system: Staphylococcus aureus; test: Induction of membrane morphological changes in methicillin-resistant Staphylococcus aureus ATCC 4330 assessed as visible cell filaments at 4X MIC after 2 hrs by scanning electron microscopy; format: functional
[29] = test system: Staphylococcus aureus; test: Induction of membrane morphological changes in methicillin-resistant Staphylococcus aureus ATCC 4330 assessed as permeable cells at 1 to 4X MIC measured after 30 to 120 mins by propidium iodide staining based flow cytometry assay; format: functional; conditions: time 30-120 min
[30] = Stability in plasma (unknown origin); format: ADME, cell-free; conditions: unidentified
[31] = Cmax in rat plasma at 15 mg/kg, IG; format: ADME, organism-based; set-up: dose 15 mg/kg, route ig; conditions: po
[32] = Cmax in rat plasma at 3 mg/kg, iv; format: ADME, organism-based; set-up: dose 3 mg/kg, route iv

CN[C@H](CC(C)C)C(=O)N[C@H]1C(=O)N[C@@H](CC(N)=O)C(=O)N[C@H]2C(=O)N[C@H]3C(=O)N[C@H](C(=O)N[C@H](C(=O)O)c4cc(O)cc(O)c4-c4cc3ccc4O)[C@H](O)c3ccc(c(Cl)c3)Oc3cc2cc(c3O[C@@H]2O[C@H](CO)[C@@H](O)[C@H](O)[C@H]2O[C@H]2C[C@](C)(N)[C@H](O)[C@H](C)O2)Oc2ccc(cc2Cl)[C@H]1O [VANCOMYCIN]
Activity [1]: 0.1 log10CFU/ml | Activity [2]: Active | Activity [3]: 2 log10CFU/ml

Cc1ccc2[nH]c3c(C(=O)c4ccccc4Br)nccc3c2c1
MIC [4]: > 200 µg/mL

O=C(c1ccccc1Br)c1nccc2c1[nH]c1ccccc12
MIC [4]: > 200 µg/mL

Cc1ccc2[nH]c3c4[n+](ccc3c2c1)-c1ccccc1C4=O.[Br-]
Activity [1]: 1.7 log10CFU/ml | viability at 24 h, 50 ug/ml [5]: 69.8% | viability at 24 h, 25 ug/ml [6]: 56.3% | Activity [7]: Non-Toxic | Activity [8]: Non-Toxic | inhibition at 6.25 µg/mL [9]: 65.4% | Activity [10]: Non-Toxic | Activity [11]: 20% | Survival [12]: 2 days | hemolysis at 12.5 ug/ml [13]: 0% | viability at 24 h, 12.5 ug/ml [14]: 17.7% | Activity [15]: 92% | fold change (FC) [16]: 0.71 | Activity [3]: 2 log10CFU/ml | MIC [4]: 0.195 µg/mL

O=C(Nc1cccc2ccccc12)c1ccc2[nH]c3c(C(=O)c4ccccc4Br)nccc3c2c1
MIC [4]: > 200 µg/mL

NC(=O)c1ccc2[nH]c3c(C(=O)c4ccccc4Br)nccc3c2c1
MIC [4]: > 200 µg/mL

O=C1c2ccccc2-[n+]2ccc3c([nH]c4ccccc43)c21.[Br-]
Activity [1]: 0 log10CFU/ml | viability at 24 h, 50 ug/ml [5]: 100% | viability at 24 h, 25 ug/ml [6]: 100% | Activity [7]: Non-Toxic | Activity [8]: Non-Toxic | inhibition at 50 µg/mL [17]: 27.4% | Activity [10]: Non-Toxic | Activity [11]: 20% | Survival [12]: 2 days | hemolysis at 12.5 ug/ml [13]: 0% | viability at 24 h, 12.5 ug/ml [14]: 91.7% | fold change (FC) [18]: 1.67 | Activity [3]: 2 log10CFU/ml | MIC [4]: 0.39 µg/mL

O=C(Nc1cccc2ccccc12)c1ccc2[nH]c3c4[n+](ccc3c2c1)-c1ccccc1C4=O.[Br-]
Activity [1]: 1.9 log10CFU/ml | viability at 24 h, 50 ug/ml [5]: 98.4% | inhibition at 1.56 µg/mL [19]: 78.9% | inhibition of DNA migration [20]: Active | Activity [21]: Active | Activity [7]: Non-Toxic | Activity [2]: Active | Activity [8]: Non-Toxic | Activity [22]: 19.3% | Activity [23]: Active | Activity [24]: Active | Activity [10]: Non-Toxic | Activity [25]: Active | Activity [26]: Active | Activity [11]: 20% | Survival [12]: 2 days | hemolysis at 12.5 ug/ml [13]: 0% | Activity [27]: Active | Activity [15]: Active | fold change (FC) [16]: 0.1 | Activity [28]: Active | Activity [3]: 2 log10CFU/ml | MIC [4]: 0.098 µg/mL

Cc1ccc2[nH]c3c4[n+](ccc3c2c1)-c1ccccc1C4=O
inhibition of DNA migration [20]: Active | Activity [21]: Active | Activity [29]: 1.11% | Activity [2]: Active | Activity [23]: Active | Activity [24]: Active | Activity [25]: Active | Activity [26]: Active | Activity [27]: Active | Activity [28]: Active

Cc1ccc2[nH]c3c4[n+](ccc3c2c1)-c1ccccc1C4=O.[Cl-]
Activity [1]: 0.1 log10CFU/ml | Activity [3]: 2 log10CFU/ml | MIC [4]: 0.78 µg/mL

O=C(c1ccccc1Br)c1nccc2c1[nH]c1ccc(Br)cc12
MIC [4]: > 200 µg/mL

NC(=O)c1ccc2[nH]c3c4[n+](ccc3c2c1)-c1ccccc1C4=O.[Br-]
MIC [4]: 200 µg/mL

CCCCNC(=O)c1ccc2[nH]c3c(C(=O)c4ccccc4Br)nccc3c2c1
MIC [4]: > 200 µg/mL

O=C1c2ccccc2-[n+]2ccc3c([nH]c4ccc(Br)cc43)c21.[Br-]
Activity [1]: 2.4 log10CFU/ml | viability at 24 h, 50 ug/ml [5]: 92.9% | inhibition at 1.56 µg/mL [19]: 74.9% | viability at 24 h, 25 ug/ml [6]: 86.5% | inhibition of DNA migration [20]: Active | Activity [21]: Active | Activity [7]: Non-Toxic | Activity [2]: Active | Activity [8]: Non-Toxic | Activity [22]: 19.3% | Activity [23]: Active | Activity [24]: Active | Activity [10]: Non-Toxic | Activity [25]: Active | Activity [26]: Active | Activity [11]: 20% | Survival [12]: 2 days | hemolysis at 12.5 ug/ml [13]: 0% | viability at 24 h, 12.5 ug/ml [14]: 72.3% | Activity [27]: Active | Activity [15]: Active | fold change (FC) [18]: 2.12 | Activity [28]: Active | Activity [3]: 2 log10CFU/ml | MIC [4]: 0.098 µg/mL

O=C(c1ccccc1Cl)c1nccc2c1[nH]c1ccccc12
MIC [4]: > 200 µg/mL

O=C(O)c1ccc2[nH]c3c(C(=O)c4ccccc4Br)nccc3c2c1
MIC [4]: > 200 µg/mL

O=C1c2ccccc2-[n+]2ccc3c([nH]c4ccccc43)c21
inhibition of DNA migration [20]: Active | Activity [21]: Active | Activity [29]: 1.11% | Activity [2]: Active | Activity [23]: Active | Activity [24]: Active | Activity [25]: Active | Activity [26]: Active | Activity [27]: Active | Activity [15]: Active | Activity [28]: Active

CCCCNC(=O)c1ccc2[nH]c3c4[n+](ccc3c2c1)-c1ccccc1C4=O.[Br-]
Activity [1]: 0.5 log10CFU/ml | Activity [2]: Active | Activity [23]: Active | Activity [3]: 2 log10CFU/ml | MIC [4]: 6.25 µg/mL

O=C(O)c1ccc2[nH]c3c4[n+](ccc3c2c1)-c1ccccc1C4=O.[Br-]
Activity [1]: 0 log10CFU/ml | Activity [2]: Active | Activity [3]: 2 log10CFU/ml | MIC [4]: 6.25 µg/mL

O=C1c2ccccc2-[n+]2ccc3c([nH]c4ccccc43)c21.[Cl-] [FASCAPLYSIN CHLORIDE]
Activity [1]: 0 log10CFU/ml | Stability [30]: 94.9% | Cmax [31]: 65.2 ng/mL | Cmax [32]: 414 ng/mL | Activity [3]: 2 log10CFU/ml | MIC [4]: 0.78 µg/mL

Cc1ccc2[nH]c3c(C(=O)c4ccccc4Cl)nccc3c2c1
MIC [4]: > 200 µg/mL
